Test results from ChEMBL document CHEMBL1212772 (2010).
Values after ≈ are worked out from the molar mass of the structure shown.

Legend:
Type in all cases: functional
Acinetobacter baumannii [1] = assay: Antimicrobial activity against wild type Acinetobacter baumannii OC 16708 deficient in beta-lactamase assessed as inhibition of growth by broth dilution method
Klebsiella pneumoniae [2] = assay: Antimicrobial activity against Klebsiella pneumoniae OC 4094 expressing extended-spectrum Beta-lactamase TEM-26 assessed as inhibition of growth by broth dilution method
Pseudomonas aeruginosa [3] = assay: Antimicrobial activity against Pseudomonas aeruginosa OC 4352 overexpressing beta-lactamase AmpC assessed as inhibition of growth by broth dilution method
Pseudomonas aeruginosa [4] = assay: Antimicrobial activity against Pseudomonas aeruginosa OC 4083 expressing beta-lactamase OXA-10 and containing Oxacillinase assessed as inhibition of growth by broth dilution method
Pseudomonas aeruginosa [5] = assay: Antimicrobial activity against Pseudomonas aeruginosa OC 13996 expressing beta-lactamase IMP-1 and containing Carbapenemase assessed as inhibition of growth by broth dilution method
Escherichia coli [6] = assay: Antimicrobial activity against wild type Escherichia coli ATCC 25922 deficient in beta-lactamase assessed as inhibition of growth by broth dilution method
Klebsiella oxytoca = assay: Antimicrobial activity against wild type Klebsiella oxytoca OC 4076 expressing Beta-lactamase K1 assessed as inhibition of growth by broth dilution method
Escherichia coli [7] = assay: Antimicrobial activity against Escherichia coli OC 6697 expressing beta-lactamase CMY-2 and containing plasmid AmpC assessed as inhibition of growth by broth dilution method
Pseudomonas aeruginosa [8] = assay: Antimicrobial activity against Pseudomonas aeruginosa OC 7052 expressing beta-lactamase VIM-2 and containing Carbapenemase assessed as inhibition of growth by broth dilution method
Escherichia coli [9] = assay: Antimicrobial activity against Escherichia coli OC 11732 expressing extended-spectrum beta-lactamase CTX-M-15 assessed as inhibition of growth by broth dilution method
Klebsiella pneumoniae [10] = assay: Antimicrobial activity against wild type Klebsiella pneumoniae OC 15263 expressing beta-lactamase SHV-1 assessed as inhibition of growth by broth dilution method
Klebsiella pneumoniae [11] = assay: Antimicrobial activity against Klebsiella pneumoniae OC 4238 overexpressing beta-lactamase SHV-1 assessed as inhibition of growth by broth dilution method
Pseudomonas aeruginosa [12] = assay: Antimicrobial activity against wild type Pseudomonas aeruginosa ATCC 27853 expressing beta-lactamase AmpC assessed as inhibition of growth by broth dilution method
Escherichia coli [13] = assay: Antimicrobial activity against Escherichia coli DH5-alpha expressing beta-lactamase TEM-1 assessed as inhibition of growth by broth dilution method
Serratia marcescens [14] = assay: Antimicrobial activity against wild type Serratia marcescens OC 7555 deficient in beta-lactamase assessed as inhibition of growth by broth dilution method
Enterobacter cloacae = assay: Antimicrobial activity against Enterobacter cloacae OC 4080 overexpressing beta-lactamase AmpC assessed as inhibition of growth by broth dilution method
Pseudomonas aeruginosa [15] = assay: Antimicrobial activity against Pseudomonas aeruginosa OC 12115 expressing beta-lactamase SPM-1 and containing Carbapenemase assessed as inhibition of growth by broth dilution method
Serratia marcescens [16] = assay: Antimicrobial activity against wild type Serratia marcescens OC 7554 expressing beta-lactamase SME-3 and containing Carbapenemase assessed as inhibition of growth by broth dilution method
Acinetobacter baumannii [17] = assay: Antimicrobial activity against Acinetobacter baumannii OC 11738 expressing beta-lactamase OXA-23 and containing Carbapenemase assessed as inhibition of growth by broth dilution method
Klebsiella pneumoniae [18] = assay: Antimicrobial activity against Klebsiella pneumoniae OC 5367 expressing beta-lactamase KPC-2 and containing Carbapenemase assessed as inhibition of growth by broth dilution method

Work on `C[C@@H](O)[C@H]1C(=O)N2C(C(=O)O)=C(S[C@@H]3CN[C@H](C(=O)N(C)C)C3)[C@H](C)[C@H]12` [MEROPENEM] yielded an MIC (Acinetobacter baumannii [1]) of 0.25 µg/mL (≈ 0.652 µM), an MIC (Klebsiella pneumoniae [2]) of 0.06 µg/mL (≈ 0.156 µM) and an MIC (Pseudomonas aeruginosa [3]) of 0.5 µg/mL (≈ 1.3 µM). The MIC (Pseudomonas aeruginosa [4]) was 2 µg/mL (≈ 5.22 µM), the MIC (Pseudomonas aeruginosa [5]) was over 256 µg/mL and the MIC (Escherichia coli [6]) was 0.03 µg/mL (≈ 0.0782 µM). It also gave an MIC (Klebsiella oxytoca) of 0.06 µg/mL (≈ 0.156 µM), an MIC (Escherichia coli [7]) of 0.06 µg/mL (≈ 0.156 µM) and an MIC (Pseudomonas aeruginosa [8]) of 32 µg/mL (≈ 83.4 µM). It also gave an MIC (Escherichia coli [9]) of 0.03 µg/mL (≈ 0.0782 µM), an MIC (Klebsiella pneumoniae [10]) of 0.03 µg/mL (≈ 0.0782 µM) and an MIC (Klebsiella pneumoniae [11]) of 0.03 µg/mL (≈ 0.0782 µM). The MIC (Pseudomonas aeruginosa [12]) was 0.5 µg/mL (≈ 1.3 µM), the MIC (Escherichia coli [13]) was 0.03 µg/mL (≈ 0.0782 µM) and the MIC (Serratia marcescens [14]) was 0.03 µg/mL (≈ 0.0782 µM). For the same molecule, the MIC (Enterobacter cloacae) was 0.25 µg/mL (≈ 0.652 µM), the MIC (Pseudomonas aeruginosa [15]) was over 256 µg/mL and the MIC (Serratia marcescens [16]) was 128 µg/mL (≈ 334 µM). For the same molecule, the MIC (Acinetobacter baumannii [17]) was 64 µg/mL (≈ 167 µM).

`C[C@@H](O)[C@H]1C(=O)N2C(C(=O)O)=C(S[C@@H]3CN[C@H](CNS(N)(=O)=O)C3)[C@H](C)[C@H]12` [DORIPENEM] was tested, and the MIC (Acinetobacter baumannii [1]) was 0.25 µg/mL (≈ 0.595 µM), the MIC (Klebsiella pneumoniae [2]) was 0.12 µg/mL (≈ 0.285 µM) and the MIC (Pseudomonas aeruginosa [3]) was 0.5 µg/mL (≈ 1.19 µM). It also gave an MIC (Pseudomonas aeruginosa [4]) of 2 µg/mL (≈ 4.76 µM), an MIC (Pseudomonas aeruginosa [5]) of over 256 µg/mL and an MIC (Escherichia coli [6]) of 0.03 µg/mL (≈ 0.0713 µM). The MIC (Klebsiella oxytoca) was 0.06 µg/mL (≈ 0.143 µM), the MIC (Escherichia coli [7]) was 0.06 µg/mL (≈ 0.143 µM) and the MIC (Pseudomonas aeruginosa [8]) was 32 µg/mL (≈ 76.1 µM). The MIC (Escherichia coli [9]) was 0.06 µg/mL (≈ 0.143 µM), the MIC (Klebsiella pneumoniae [10]) was 0.06 µg/mL (≈ 0.143 µM) and the MIC (Klebsiella pneumoniae [11]) was 0.06 µg/mL (≈ 0.143 µM). The MIC (Pseudomonas aeruginosa [12]) was 0.5 µg/mL (≈ 1.19 µM), the MIC (Escherichia coli [13]) was 0.06 µg/mL (≈ 0.143 µM) and the MIC (Serratia marcescens [14]) was 0.06 µg/mL (≈ 0.143 µM). For the same molecule, the MIC (Enterobacter cloacae) was 0.25 µg/mL (≈ 0.595 µM), the MIC (Pseudomonas aeruginosa [15]) was over 256 µg/mL and the MIC (Serratia marcescens [16]) was 128 µg/mL (≈ 304 µM). It also gave an MIC (Klebsiella pneumoniae [18]) of 8 µg/mL (≈ 19 µM) and an MIC (Acinetobacter baumannii [17]) of 32 µg/mL (≈ 76.1 µM).

With `CC(C)(O/N=C(\C(=O)N[C@@H]1C(=O)N2C(C(=O)[O-])=C(C[n+]3ccccc3)CS[C@H]12)c1csc(N)n1)C(=O)O` [CEFTAZIDIME] the MIC (Acinetobacter baumannii [1]) was 4 µg/mL (≈ 7.32 µM), the MIC (Klebsiella pneumoniae [2]) was over 256 µg/mL and the MIC (Pseudomonas aeruginosa [3]) was 32 µg/mL (≈ 58.5 µM). It also gave an MIC (Pseudomonas aeruginosa [4]) of over 4 µg/mL, an MIC (Pseudomonas aeruginosa [5]) of over 256 µg/mL and an MIC (Escherichia coli [6]) of 0.25 µg/mL (≈ 0.457 µM). It also gave an MIC (Klebsiella oxytoca) of 1 µg/mL (≈ 1.83 µM), an MIC (Escherichia coli [7]) of over 128 µg/mL and an MIC (Pseudomonas aeruginosa [8]) of 64 µg/mL (≈ 117 µM). The MIC (Escherichia coli [9]) was 32 µg/mL (≈ 58.5 µM), the MIC (Klebsiella pneumoniae [10]) was 0.12 µg/mL (≈ 0.22 µM) and the MIC (Klebsiella pneumoniae [11]) was 2 µg/mL (≈ 3.66 µM). For the same molecule, the MIC (Pseudomonas aeruginosa [12]) was 2 µg/mL (≈ 3.66 µM), the MIC (Escherichia coli [13]) was 0.5 µg/mL (≈ 0.915 µM) and the MIC (Serratia marcescens [14]) was 0.5 µg/mL (≈ 0.915 µM). The MIC (Enterobacter cloacae) was 32 µg/mL (≈ 58.5 µM), the MIC (Pseudomonas aeruginosa [15]) was over 256 µg/mL and the MIC (Serratia marcescens [16]) was 0.5 µg/mL (≈ 0.915 µM). The MIC (Klebsiella pneumoniae [18]) was 32 µg/mL (≈ 58.5 µM) and the MIC (Acinetobacter baumannii [17]) was over 256 µg/mL.

`C[C@@H](O)[C@H]1C(=O)N2C(C(=O)O)=C(SCCNC=N)C[C@H]12` [IMIPENEM ANHYDROUS] was tested, and the MIC (Acinetobacter baumannii [1]) was 0.25 µg/mL (≈ 0.835 µM), the MIC (Klebsiella pneumoniae [2]) was 0.5 µg/mL (≈ 1.67 µM) and the MIC (Pseudomonas aeruginosa [3]) was 2 µg/mL (≈ 6.68 µM). It also gave an MIC (Pseudomonas aeruginosa [4]) of 1 µg/mL (≈ 3.34 µM), an MIC (Pseudomonas aeruginosa [5]) of over 256 µg/mL and an MIC (Klebsiella oxytoca) of 0.25 µg/mL (≈ 0.835 µM). It also gave an MIC (Escherichia coli [7]) of 0.5 µg/mL (≈ 1.67 µM), an MIC (Pseudomonas aeruginosa [8]) of 64 µg/mL (≈ 214 µM) and an MIC (Escherichia coli [9]) of 0.25 µg/mL (≈ 0.835 µM). It also gave an MIC (Klebsiella pneumoniae [10]) of 0.5 µg/mL (≈ 1.67 µM), an MIC (Klebsiella pneumoniae [11]) of 0.25 µg/mL (≈ 0.835 µM) and an MIC (Pseudomonas aeruginosa [12]) of 2 µg/mL (≈ 6.68 µM). It also gave an MIC (Serratia marcescens [14]) of 0.25 µg/mL (≈ 0.835 µM), an MIC (Enterobacter cloacae) of 1 µg/mL (≈ 3.34 µM) and an MIC (Pseudomonas aeruginosa [15]) of over 256 µg/mL. The MIC (Serratia marcescens [16]) was over 256 µg/mL, the MIC (Klebsiella pneumoniae [18]) was 16 µg/mL (≈ 53.4 µM) and the MIC (Acinetobacter baumannii [17]) was 64 µg/mL (≈ 214 µM).
